pIC50: −log10 of the molar value. Where only a bound is given, the exact number is not on record here.

T1 sequence (Q15125 whole entry): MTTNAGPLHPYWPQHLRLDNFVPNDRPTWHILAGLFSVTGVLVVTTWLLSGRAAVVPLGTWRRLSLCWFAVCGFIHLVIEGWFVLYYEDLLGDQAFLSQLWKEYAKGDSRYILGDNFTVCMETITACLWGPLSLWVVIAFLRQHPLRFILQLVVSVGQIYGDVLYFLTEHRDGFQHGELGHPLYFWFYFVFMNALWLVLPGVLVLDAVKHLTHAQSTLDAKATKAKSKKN

This test concerns the target T1, EBP (Homo sapiens, UniProt Q15125).
T1 construct: HEK293T cells were utilized as the source of EBP enzyme; endogenous in cells; host or cells: HEK293T
Put plainly: EBP Functional Assay (EBP immunoaffinity LC-MS assay). Conditions: HEK293T cells as source of EBP enzyme; zymosterol-d5 substrate; inhibitor 30 min, then 37 °C for 4 h; percent conversion to dehydrolathosterol-d5 by LC-APCI MRM MS; read-out: EBP Functional Assay. The format is biochemical. The procedure, abridged: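 HEK293T-derived EBP preincubated 30 min with inhibitor, then zymosterol-d5 added and incubated 4 h at 37 °C. Extracted sterols quantified by LC-APCI MRM MS (372.3-203.2, positive mode). IC50 from percent conversion to […], fit to a 4-parameter logistic model.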
With `Cc1nc(C(F)(F)F)ncc1S(=O)(=O)N1CC2(CC(N(C)C3COC3)C2)C1` [Example 81, N-methyl-2-((4-methyl-2-(trifluoromethyl)pyrimidin-5-yl)sulfonyl)-N-(oxetan-3-yl)-2-azaspiro[3.3]heptan-6-amine], the pIC50 was 6.30 to 7.00.

Turning to `Cc1nc(C(F)(F)F)ncc1S(=O)(=O)N1CC2(CC(N(C)C3CC4(COC4)C3)C2)C1` (stereo not drawn) [Example 82, N-methyl-2-((4-methyl-2-(trifluoromethyl)pyrimidin-5-yl)sulfonyl)-N-(2-oxaspiro[3.3]heptan-6-yl)-2-azaspiro[3.3]heptan-6-amine], the pIC50 is above 7.00. As for `Cc1nc(C(F)(F)F)ncc1S(=O)(=O)N1CC2(CC(N(C)CC3CCOCC3)C2)C1` [Example 83, N-methyl-2-((4-methyl-2-(trifluoromethyl)pyrimidin-5-yl)sulfonyl)-N-((tetrahydro-2H-pyran-4-yl)methyl)-2-azaspiro[3.3]heptan-6-amine], the pIC50 is 6.30 to 7.00.

Values taken from patent publication US20260365663A1, “EMOPAMIL-BINDING PROTEIN INHIBITORS AND USES THEREOF” (BIOGEN MA INC., priority 2022, published 2026).
